Test results as given in US20250346592A1 (Celgene Corporation, priority 2022, published 2025).

Experiments:
hPAD4 enzyme [1] = target: T1, hPAD4 enzyme (Homo sapiens (Human), UniProt Q9UM07); assay: RFMS1 assay (RapidFire mass spectrometry, BAEE substrate); assay type: biochemical; details: 5 nM hPAD4, 250 μM BAEE, 30 min preincubation at 37° C., 90 min reaction; read-out: RFMS 1 IC50
Protocol: Compounds were solubilized in 100% DMSO to achieve a 10 mM compound concentration. Compound stock solutions were stored at RT. A series of dilutions were prepared in DMSO and mixed 8 times with 20 μL mixing volume. Final top concentration of compound in the assay is 50 μM. Final assay conditions were as follows: • Reaction volume: 26 μl • Assay buffer: 25 mM hepes, pH 7.5, 5 mM NaCl, 1 mM DTT, 0.2 mg/ml BSA, 0.01% CHAPS, 50 µM Calcium, and 5 μM TPEN • Final concentrations: 5 nM hPAD4 enzyme, 250 µM BAEE, and 0.5% DMSO • Total incubation time: 30 mins compound and enzyme preincubation at 37° C., 90 min enzyme/substrate reaction, 30 min reaction with phenyl glyoxal at 37° C. • Stop solution: 40 μl 5% TCA in ACN • 0.13 μL of compound solution was added to 13 μL of 10 nM PAD4 in assay buffer. After […] min 13 μl of 500 µM of BAEE was added in 25 mM hepes, pH 7.5, 5 mM NaCl, 1 mM DTT, 0.2 mg/ml BSA, 0.01% CHAPS, 50 μM Calcium, 5 μM TPEN was added and the reaction incubated for 90 min at 37° C. The enzymatic reaction was quenched by addition of 15 μl of 6.1N TCA, 100% Final Concentration is 20%, 35 μl of 8.5 mM phenyl glyoxal (final concentration 4 mM) is then added and the reaction is incubated for 30 min at 37° C.
After 30 minutes the plates are spun down to remove all precipitate. The enzyme reaction was quenched with an equal volume of methanol containing internal standard (modified citrulline). Samples were loaded onto the Rapid Fire RF300 system (Agilent) wherein they were first sipped for 1000 ms and then directly loaded to a C18 separations cartridge using a mixture of acetonitrile containing 0.01% formic acid for 3000 ms desalting. The flow rate of the mobile phase was 1.5 ml/min. Once the samples were eluted from the cartridge, a mobile phase of acetonitrile containing 0.01% formic acid was used to move the samples into the mass spectrometer for 4000 ms at a flow rate of 1.25 ml/min/Sciex API5500 triple quadrupole mass spectrometer (Applied Biosystems) equipped with ESI was used to analyze the peptidyl citrulline and internal standard ions.
MRM transition of product and internal standard were monitored at m/z 424.5 to 350.4 and m/z 293 to 247 respectively. The dwell time for each transition was set at 200 ms, and the ESI voltage was used at 5500 with a source temperature of 400° C. Extracted ion peaks for each transition were integrated using the Rapid Fire Integrator software. Peak area of analyte was normalized with internal standard.).
Compounds having an activity designated as “A” provided an IC50≤10 nM; compounds having an activity designated as “B” provided an IC50 11-100 nM; compounds having an activity designated as “C” provided an IC50 101-500 nM; compounds having an activity designated as “D” provided an IC50 501-1000 nM; compounds having an activity designated as “E” provided an IC50>1000 nM.

hPAD4 enzyme [2] = target: T1, hPAD4 enzyme; assay: RFMS2 assay (RapidFire mass spectrometry, TSTGGRQGSHH peptide substrate); assay type: biochemical; details: 35 nM recombinant human PAD4, 500 μM TSTGGRQGSHH peptide, 30 minutes at room temperature; read-out: RFMS 2 IC50
Procedure, shortened: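 IC50 derived from RapidFire LC-MS/MS (positive ESI MRM) of substrate versus product after a 30 min room-temperature reaction stopped with 10% formic acid. Reaction contained 35 nM human PAD4, 500 μM peptide, 2 mM CaCl2, 5 mM DTT at pH 7.4, and compounds diluted 3-fold from 20 μM.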

T1 sequence (Q9UM07 whole entry): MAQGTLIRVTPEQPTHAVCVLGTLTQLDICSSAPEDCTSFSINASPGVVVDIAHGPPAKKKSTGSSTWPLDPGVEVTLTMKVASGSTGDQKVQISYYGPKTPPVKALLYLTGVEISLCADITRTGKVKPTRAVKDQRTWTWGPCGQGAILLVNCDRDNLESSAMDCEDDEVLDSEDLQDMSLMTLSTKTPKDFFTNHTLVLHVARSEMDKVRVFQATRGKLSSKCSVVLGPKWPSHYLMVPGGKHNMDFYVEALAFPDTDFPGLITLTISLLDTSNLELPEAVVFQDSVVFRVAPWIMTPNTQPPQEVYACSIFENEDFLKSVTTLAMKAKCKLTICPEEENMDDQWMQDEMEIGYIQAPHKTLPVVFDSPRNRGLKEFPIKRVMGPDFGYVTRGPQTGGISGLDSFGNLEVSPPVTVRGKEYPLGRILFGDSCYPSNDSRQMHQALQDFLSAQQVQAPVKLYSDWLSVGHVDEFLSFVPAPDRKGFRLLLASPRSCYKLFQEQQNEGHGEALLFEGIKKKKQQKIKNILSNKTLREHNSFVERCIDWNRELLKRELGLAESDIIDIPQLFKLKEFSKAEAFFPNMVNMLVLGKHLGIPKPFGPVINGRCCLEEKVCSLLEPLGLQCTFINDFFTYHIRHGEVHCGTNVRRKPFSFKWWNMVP

Row | SMILES | IC50 (hPAD4 enzyme [1]) [µM] | IC50 (hPAD4 enzyme [2]) [µM]
1 | Cc1cc(C(N)=O)c(F)cc1-c1ccc2cc(-c3nc4cc5c(cc4n3C)CCN(C[C@H]3COCCN3)C5=O)n(CC3CC3)c2n1 [Example 245, (S)-4-(1-(cyclopropylmethyl)-2-(1-methyl-6-(morpholin-3-ylmethyl)-5-oxo-5,6,7,8-tetrahydro-1H-imidazo[4,5-g]isoquinolin-2-yl)-1H-pyrrolo[2,3-b]pyridin-6-yl)-2-fluoro-5-methylbenzamide] | 0.101 to 0.5 | 
2 | Cn1c(-c2cc3ccc(-c4cccc(O)c4F)nc3n2CC2CC2)nc2cc3c(cc21)CCN(C[C@H]1COCCN1)C3=O [Example 248, (S)-2-(1-(cyclopropylmethyl)-6-(2-fluoro-3-hydroxyphenyl)-1H-pyrrolo[2,3-b]pyridin-2-yl)-1-methyl-6-(morpholin-3-ylmethyl)-1,6,7,8-tetrahydro-5H-imidazo[4,5-g]isoquinolin-5-one] | 0.501 to 1 | 
3 | C[C@H](COc1cccc2cc(-c3nc4cc5c(c(F)c4n3C)CCN(C[C@H](N)CF)C5=O)n(CC3CC3)c12)n1cnc(F)c1 [Example 241, 6-((S)-2-amino-3-fluoropropyl)-2-(1-(cyclopropylmethyl)-7-((R)-2-(4-fluoro-1H-imidazol-1-yl)propoxy)-1H-indol-2-yl)-9-fluoro-1-methyl-1,6,7,8-tetrahydro-5H-imidazo[4,5-g]isoquinolin-5-one] | ≤ 0.01 | 
4 | COc1cccc2cc(-c3nc4cc5c(cc4n3C)CCN(C[C@H]3COCCN3)C5=O)n(CCOC(F)F)c12 [Example 233, (S)-2-(1-(2-(difluoromethoxy)ethyl)-7-methoxy-1H-indol-2-yl)-1-methyl-6-(morpholin-3-ylmethyl)-1,6,7,8-tetrahydro-5H-imidazo[4,5-g]isoquinolin-5-one] | 0.101 to 0.5 | 
5 | Cn1c(-c2cc3cccc(OC(F)Cn4ccnc4)c3n2CC2CC2)nc2cc3c(cc21)CCN(C[C@H](N)CF)C3=O (single isomer, unassigned) [Example 226a] | ≤ 0.01 | 
6 | C[C@H](COc1cccc2cc(-c3nc4cc5c(cc4n3C)CCN(C[C@H]3COCCN3)C5=O)n(CC3CC3)c12)n1cnc(F)c1 [Example 235, 2-(1-(cyclopropylmethyl)-7-((R)-2-(4-fluoro-1H-imidazol-1-yl)propoxy)-1H-indol-2-yl)-1-methyl-6-(((S)-morpholin-3-yl)methyl)-1,6,7,8-tetrahydro-5H-imidazo[4,5-g]isoquinolin-5-one] | ≤ 0.01 | 
7 | C[C@H](COc1cccc2cc(-c3nc4cc5c(cc4n3C)CCN(C[C@@H](C)N)C5=O)n(CC3CC3)c12)n1cnc(F)c1 [Example 230, 6-((R)-2-aminopropyl)-2-(1-(cyclopropylmethyl)-7-((R)-2-(4-fluoro-1H-imidazol-1-yl)propoxy)-1H-indol-2-yl)-1-methyl-1,6,7,8-tetrahydro-5H-imidazo[4,5-g]isoquinolin-5-one] | ≤ 0.01 | 
8 | CCn1c(-c2nc3cc4c(cc3n2C)CCN(C[C@H](N)CF)C4=O)cc2cccc(OC)c21 [Example 107, (S)-6-(2-amino-3-fluoropropyl)-2-(1-ethyl-7-methoxy-1H-indol-2-yl)-1-methyl-1,6,7,8-tetrahydro-5H-imidazo[4,5-g]isoquinolin-5-one] |  | 0.501 to 1
9 | C[C@@H](N)CN1CCc2cc3c(cc2C1=O)nc(-c1cc2ccccc2n1CC12CC(C1)C2)n3C [Example 73, (R)-6-(2-aminopropyl)-2-(1-(bicyclo[1.1.1]pentan-1-ylmethyl)-1H-indol-2-yl)-1-methyl-1,6,7,8-tetrahydro-5H-imidazo[4,5-g]isoquinolin-5-one] |  | > 1
10 | COc1cccc2cc(-c3nc4cc5c(cc4n3C)CCN(C[C@H](N)CF)C5=O)n(Cc3ncno3)c12 [Example 120, (S)-2-(1-((1,2,4-oxadiazol-5-yl)methyl)-7-methoxy-1H-indol-2-yl)-6-(2-amino-3-fluoropropyl)-1-methyl-1,6,7,8-tetrahydro-5H-imidazo[4,5-g]isoquinolin-5-one] |  | 0.101 to 0.5
11 | C[C@@H](N)CN1CCc2cc3c(cc2C1=O)nc(-c1cc2ccc(=O)[nH]c2n1CC1CC1)n3C [Example 45, (R)-6-(2-aminopropyl)-2-(1-(cyclopropylmethyl)-6-oxo-6,7-dihydro-1H-pyrrolo[2,3-b]pyridin-2-yl)-1-methyl-1,6,7,8-tetrahydro-5H-imidazo[4,5-g]isoquinolin-5-one] |  | > 1
12 | Cn1c(-c2cc3cccc(OCC4CCNC4=O)c3n2CC2CC2)nc2cc3c(cc21)CCN(C[C@H](N)CF)C3=O (stereo partly drawn) [Example 219, 6-((S)-2-amino-3-fluoropropyl)-2-(1-(cyclopropylmethyl)-7-((2-oxopyrrolidin-3-yl)methoxy)-1H-indol-2-yl)-1-methyl-1,6,7,8-tetrahydro-5H-imidazo[4,5-g]isoquinolin-5-one] |  | 0.101 to 0.5
13 | Cn1c(-c2cc3cccc(OCC4CNC(=O)C4)c3n2CC2CC2)nc2cc3c(cc21)CCN(C[C@H](N)CF)C3=O (some centres unmarked) [Example 151] |  | 0.011 to 0.1

The remaining lines, values ahead:

Row | IC50 (hPAD4 enzyme [1]) [µM] | IC50 (hPAD4 enzyme [2]) [µM] | SMILES
14 | 0.011 to 0.1 |  | COc1cccc2cc(-c3nc4cc5c(cc4n3C)CCN(C[C@H](N)CF)C5=O)n(CCOC(F)F)c12 [Example 135, (S)-6-(2-amino-3-fluoropropyl)-2-(1-(2-(difluoromethoxy)ethyl)-7-methoxy-1H-indol-2-yl)-1-methyl-1,6,7,8-tetrahydro-5H-imidazo[4,5-g]isoquinolin-5-one]
15 | 0.501 to 1 |  | COC1CCN(c2ccc3cc(-c4nc5cc6c(cc5n4C)CCN(C[C@H]4COCCN4)C6=O)n(CC4CC4)c3c2)CC1 [Example 249, (S)-2-(1-(cyclopropylmethyl)-6-(4-methoxypiperidin-1-yl)-1H-indol-2-yl)-1-methyl-6-(morpholin-3-ylmethyl)-1,6,7,8-tetrahydro-5H-imidazo[4,5-g]isoquinolin-5-one]
16 |  | 0.101 to 0.5 | Cn1c(-c2cc3cccc(OCCc4cc[nH]c4)c3n2CC2CC2)nc2cc3c(cc21)CCN(C[C@H](N)CF)C3=O [Example 203]
17 |  | > 1 | Cn1c(-c2cc3cccc(OCCn4ncnc4C#N)c3n2CC2CC2)nc2cc3c(cc21)CCN(C[C@H](N)CF)C3=O [Example 225, (S)-1-(2-((2-(6-(2-amino-3-fluoropropyl)-1-methyl-5-oxo-5,6,7,8-tetrahydro-1H-imidazo[4,5-g]isoquinolin-2-yl)-1-(cyclopropylmethyl)-1H-indol-7-yl)oxy)ethyl)-1H-1,2,4-triazole-5-carbonitrile]
18 |  | 0.101 to 0.5 | Cn1c(-c2cc3cccc(OCCc4cocn4)c3n2CC2CC2)nc2cc3c(cc21)CCN(C[C@H](N)CF)C3=O [Example 196, (S)-6-(2-amino-3-fluoropropyl)-2-(1-(cyclopropylmethyl)-7-(2-(oxazol-4-yl)ethoxy)-1H-indol-2-yl)-1-methyl-1,6,7,8-tetrahydro-5H-imidazo[4,5-g]isoquinolin-5-one]
19 |  | > 1 | COCCn1c(-c2nc3cc4c(cc3n2C)CCN(C[C@H](N)CF)C4=O)cc2ccnc(OC)c21 [Example 110, (S)-6-(2-amino-3-fluoropropyl)-2-(7-methoxy-1-(2-methoxyethyl)-1H-pyrrolo[2,3-c]pyridin-2-yl)-1-methyl-1,6,7,8-tetrahydro-5H-imidazo[4,5-g]isoquinolin-5-one]
20 |  | 0.101 to 0.5 | Cn1c(-c2cc3cccc(OCC4CNC4)c3n2CC2CC2)nc2cc3c(cc21)CCN(C[C@H](N)CF)C3=O [Example 152, (S)-6-(2-amino-3-fluoropropyl)-2-(7-(azetidin-3-ylmethoxy)-1-(cyclopropylmethyl)-1H-indol-2-yl)-1-methyl-1,6,7,8-tetrahydro-5H-imidazo[4,5-g]isoquinolin-5-one]
